PMC9272661 (Antiviral Research, 2022)
Entries after “also recorded” stand apart in the source; their conditions may differ. Read-outs that look alike come from different tables or passages of the source.

What was measured:
SARS-CoV-2 = assay: microbe, parasite or virus in culture; format: cell-based, SARS-CoV-2 (strain 2019-nCoV/USA_WA1/2020)
SARS-CoV = conditions: cited from earlier work
SARS-CoV 3CLpro = SARS-CoV 3CLpro (Severe acute respiratory syndrome coronavirus, UniProt P0C6X7); format: biochemical
3CLpro = conditions: read-out: reported IC50; reported value, no reference given; cited from earlier work
Cytotoxicity = format: cell-based
[1] = Severe acute respiratory syndrome coronavirus 2, 48 h

For `CCC(C)[C@H](NC(=O)c1cc(Cl)ccc1O)C(=O)Nc1ccc([N+](=O)[O-])cc1Cl` (stereo partly drawn) [JMX0673], the EC50 (SARS-CoV-2) was 1740 nM.

`CC(C)[C@H](NC(=O)c1cc(Cl)ccc1O)C(=O)Nc1cc(F)cc(C(F)(F)F)c1` [JMX0680] showed an EC50 (SARS-CoV-2) of 4570 nM.

In the case of `O=C(Nc1ccc([N+](=O)[O-])cc1Cl)c1cc(Cl)ccc1O` [niclosamide], the “Concentration suppressing the cytopathic effect (CPE) of SARS-CoV” value (SARS-CoV) is given as 1 µM, the EC50 (SARS-CoV; read-out: EC50 of SARS-CoV replication) is given as under 100 nM and the “Inhibitory activity against SARS-CoV 3CLpro” value (SARS-CoV 3CLpro) is given as “does not inhibit; also recorded: no obvious inhibitory activity”.

In the case of `CC(C)(C)OC(=O)NCCOc1ccc(Cl)cc1C(=O)NCC(=O)Nc1ccc([N+](=O)[O-])cc1Cl` [JMX0301, Tert-Butyl (2-(4-chloro-2-((2-((2-chloro-4-nitrophenyl)amino)-2-oxoethyl)carbamoyl)phenoxy)ethyl)carbamate], the “SARS-CoV-2 3CLpro EC50” value (SARS-CoV-2; Table 2, cell-based antiviral assay, SARS-CoV-2 viral replication) is reported as “No Dose response”.

`CC(C)[C@H](NC(=O)c1cc(Cl)ccc1O)C(=O)Nc1ccc(C(F)(F)F)cc1Cl` [JMX0672] showed an EC50 (SARS-CoV-2) of 1920 nM.

`CC(C)[C@H](NC(=O)c1cc(Cl)ccc1O)C(=O)Nc1ccc([N+](=O)[O-])cc1Cl` [JMX0281] gave an EC50 (SARS-CoV-2) of 2080 nM.

In the case of `CC(C)(C)NC(=O)[C@@H](c1cccnc1)N(C(=O)c1ccco1)c1ccc(C(C)(C)C)cc1` [ML-188], the IC50 (3CLpro) is given as about 2000 nM.

Molecule `CC(C)[C@H](NC(=O)c1cc(Cl)ccc1O)C(=O)Nc1ccc(F)c(F)c1` [JMX0681] has an EC50 (SARS-CoV-2) of 9750 nM.

In the case of `O=C(NC(Cc1ccccc1)C(=O)Nc1ccc([N+](=O)[O-])cc1Cl)c1cc(Cl)ccc1O` (stereo not drawn) [JMX0285], the EC50 (SARS-CoV-2) is reported as 3030 nM.

For `O=C(Nc1cc(C(F)(F)F)cc(C(F)(F)F)c1)c1cccc([N+](=O)[O-])c1O` [JMX0330, N-(3,5-Bis(trifluoromethyl)phenyl)-2-hydroxy-3-nitrobenzamide], the EC50 (SARS-CoV-2; [1]) was 498 nM, the EC50 (SARS-CoV-2; listed as JMX0320) was “sub-micromolar” and the CC50 at 48 h (Cytotoxicity) was 10200 nM.

`O=C(Nc1ccc(C(F)(F)F)cc1Cl)c1cccc([N+](=O)[O-])c1O` [JMX0310, N-(2-Chloro-4-(trifluoromethyl)phenyl)-2-hydroxy-3-nitrobenzamide] gave an EC50 (SARS-CoV-2; [1]) of 2410 nM and a CC50 at 48 h (Cytotoxicity) of 10100 nM.

`O=C(Nc1ccc([N+](=O)[O-])cc1Cl)c1cccc([N+](=O)[O-])c1O` [JMX0207] gave an EC50 (SARS-CoV-2) of 1220 nM.

Work on `CC(C)C[C@H](NC(=O)c1cc(Cl)ccc1O)C(=O)Nc1ccc([N+](=O)[O-])cc1Cl` [JMX0671] yielded an EC50 (SARS-CoV-2) of 1560 nM.

Work on `O=C(Nc1cc(F)cc(C(F)(F)F)c1)c1cccc([N+](=O)[O-])c1O` [JMX0317, N-(3-Fluoro-5-(trifluoromethyl)phenyl)-2-hydroxy-3-nitrobenzamide] yielded an EC50 (SARS-CoV-2; [1]) of 4030 nM and a CC50 at 48 h (Cytotoxicity) of 11700 nM.

Work on `Cl.NCCOc1ccc(Cl)cc1C(=O)NCC(=O)Nc1ccc([N+](=O)[O-])cc1Cl` [JMX0286, 2-(2-Aminoethoxy)-5-chloro-N-(2-((2-chloro-4-nitrophenyl)amino)-2-oxoethyl)benzamide hydrochloride] yielded an EC50 (SARS-CoV-2; [1]) of 2250 nM and a CC50 at 48 h (Cytotoxicity) of 3780 nM.

In the case of `C[C@H](NC(=O)c1cc(Cl)ccc1O)C(=O)Nc1ccc([N+](=O)[O-])cc1Cl` [JMX0674], the EC50 (SARS-CoV-2) is reported as 9750 nM.

With `O=C(Nc1ccc(F)c(F)c1)c1cc(Cl)ccc1O` [JMX0321] the EC50 (SARS-CoV-2) was 1190 nM.

With `O=C(Nc1cc(F)cc(C(F)(F)F)c1)c1cc(Cl)ccc1O` [JMX0312] the EC50 (SARS-CoV-2) was 1130 nM.

`CC(C)(C)NC(=O)N[C@H](C(=O)N1C[C@H]2[C@@H]([C@H]1C(=O)NC(CC1CCC1)C(=O)C(N)=O)C2(C)C)C(C)(C)C` (stereo partly drawn) [Boceprevir, boceprevir, reference compound] showed an EC50 (SARS-CoV-2; Severe acute respiratory syndrome coronavirus 2, read-out: SARS-CoV-2 3CLpro EC50, Table 2, cell-based antiviral assay, SARS-CoV-2 viral replication) of 15600 nM.

Work on `CC(C)[C@H](NC(=O)c1cc(Cl)ccc1O)C(=O)Nc1cc(C(F)(F)F)cc(C(F)(F)F)c1` [JMX0679] yielded an EC50 (SARS-CoV-2) of 2510 nM.
